Assay results: patent publication US9409966B2, “Glucagon-like peptide-1 derivatives and their pharmaceutical use” (priority 2007, dated 2016)
*1 amine or outer side, *2 acyl side, *3 side chain or, on linkers, in order; H or OH if unused. Where a SMILES comes first, the peptide text is derived from it. Side-chain parts run from the residue outwards. [ ]: non-standard residue; d: D form. The star is where a group is joined. C20 diacid = O=C(O)CCCCCCCCCCCCCCCCCCC(=O)*; C18 diacid = O=C(O)CCCCCCCCCCCCCCCCC(=O)*; γGlu = O=C(O)[C@H](CCC(=O)[*:2])N[*:1]; Desaminohistidyl = O=C(CCc1c[nH]cn1)*; βAsp = O=C(O)[C@H](CC(=O)[*:2])N[*:1]; Trx = NC[C@H]1CC[C@H](C(=O)O)CC1; AEEA = NCCOCCOCC(=O)O; Aib = CC(C)(N)C(=O)O; Inp = O=C(O)C1CCNCC1

Columns and labels:
[1] = target: T1, human GLP-1 receptor (Homo sapiens, UniProt P43220); test: Stimulation of cAMP formation in a cell line expressing the cloned human GLP-1 receptor; format: biochemical; conditions: cAMP production, purified plasma membranes from BHK467-12A (tk-ts13), AlphaScreen cAMP Assay Kit; read-out: Potency [EC50/nM]
T1 construct: expressed in transfected cells; host or cells: BHK467-12A (tk-ts13) baby hamster kidney cells; purified plasma membranes
Experimental: A stable transfected cell line has been prepared at NN A/S, Denmark, and a high expressing clone was selected for screening. The cells were grown at 5% CO2 in DMEM, 5% FCS, 1% Pen/Strep (Penicillin/Streptomycin) and 0.5 mg/ml of the selection marker G418.
Cells at approximate 80% confluence were washed 2× with PBS (Phosphate Buffered Saline) and harvested with Versene (aqueous solution of the tetrasodium salt of ethylenediaminetetraacetic acid), centrifuged 5 min at 1000 rpm and the supernatant removed. The additional steps were all made on ice. […] Suspension in Buffer 2, homogenization and centrifugation was repeated once and the membranes were resuspended in Buffer 2 and ready for further analysis or stored at −80° C.
The functional receptor assay was carried out by measuring the peptide induced cAMP production by The AlphaScreen Technology. […] The capture of cAMP is achieved by using a specific antibody conjugated to acceptor beads. Formed cAMP was counted and measured at a AlphaFusion Microplate Analyzer. The EC50 values were calculated using the Graph-Pad Prisme software (version 5).

[2] = target: human serum albumin (HSA) (Homo sapiens, UniProt P02768); test: Albumin binding affinity, competition scintillation proximity assay (SPA)
Chain of human serum albumin (HSA) (P02768 25-609): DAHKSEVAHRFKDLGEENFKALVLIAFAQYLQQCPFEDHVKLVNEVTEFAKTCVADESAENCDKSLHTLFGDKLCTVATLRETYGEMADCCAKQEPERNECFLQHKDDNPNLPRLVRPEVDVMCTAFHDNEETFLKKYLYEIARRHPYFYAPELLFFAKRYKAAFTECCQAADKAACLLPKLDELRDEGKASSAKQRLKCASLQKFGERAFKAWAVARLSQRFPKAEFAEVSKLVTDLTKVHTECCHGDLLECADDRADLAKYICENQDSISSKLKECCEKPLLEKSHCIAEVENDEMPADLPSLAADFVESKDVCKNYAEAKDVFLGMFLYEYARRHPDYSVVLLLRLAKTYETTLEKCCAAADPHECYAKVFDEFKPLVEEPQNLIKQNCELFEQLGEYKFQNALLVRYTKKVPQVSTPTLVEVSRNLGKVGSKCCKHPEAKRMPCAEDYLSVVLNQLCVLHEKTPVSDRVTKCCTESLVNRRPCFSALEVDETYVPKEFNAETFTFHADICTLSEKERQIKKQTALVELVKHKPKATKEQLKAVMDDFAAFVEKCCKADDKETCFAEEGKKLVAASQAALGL
Experimental: Streptavidin-SPA beads (GE Healthcare RPNQ0009) were incubated with biotinylated HSA for 5 hours. The beads were washed with buffer to remove unbound HSA. […] After 20 hours of gentle rocking at room temperature the plates were centrifuged and counted on a TopCounter.

T1 sequence (P43220 24-463): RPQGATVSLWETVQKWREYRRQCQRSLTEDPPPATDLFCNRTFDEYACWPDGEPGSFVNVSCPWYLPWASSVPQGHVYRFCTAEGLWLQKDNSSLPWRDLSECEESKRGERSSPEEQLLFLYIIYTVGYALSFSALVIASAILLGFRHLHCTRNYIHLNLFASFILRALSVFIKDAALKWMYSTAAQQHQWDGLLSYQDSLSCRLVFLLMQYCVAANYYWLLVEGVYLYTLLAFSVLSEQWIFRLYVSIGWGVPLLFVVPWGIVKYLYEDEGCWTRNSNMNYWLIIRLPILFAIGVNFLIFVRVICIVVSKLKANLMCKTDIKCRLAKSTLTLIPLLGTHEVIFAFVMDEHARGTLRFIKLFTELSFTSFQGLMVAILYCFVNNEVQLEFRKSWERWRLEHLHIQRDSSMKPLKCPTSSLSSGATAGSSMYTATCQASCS

Row | SMILES | EC50 [1] | EC50 [2]
1 | CC[C@H](C)[C@H](NC(=O)[C@H](Cc1ccccc1)NC(=O)[C@H](CCC(=O)O)NC(=O)[C@H](CCCNC(=N)N)NC(=O)[C@H](C)NC(=O)[C@H](C)NC(=O)[C@H](CCC(N)=O)NC(=O)[C@H](CCC(=O)O)NC(=O)[C@H](CCC(=O)O)NC(=O)[C@H](CC(C)C)NC(=O)[C@H](Cc1ccc(O)cc1)NC(=O)[C@H](CO)NC(=O)[C@H](CO)NC(=O)[C@@H](NC(=O)[C@H](CC(=O)O)NC(=O)[C@H](CO)NC(=O)[C@@H](NC(=O)[C@H](Cc1ccccc1)NC(=O)[C@@H](NC(=O)CNC(=O)[C@H](CCC(=O)O)NC(=O)C(C)(C)NC(=O)[C@@H](N)Cc1c[nH]cn1)[C@@H](C)O)[C@@H](C)O)C(C)C)C(=O)N[C@@H](C)C(=O)N[C@@H](Cc1c[nH]c2ccccc12)C(=O)N[C@@H](CC(C)C)C(=O)N[C@H](C(=O)N[C@@H](CCCNC(=N)N)C(=O)NCC(=O)N[C@@H](CCCNC(=N)N)C(=O)N[C@@H](CCCCNC(=O)CC[C@H](NC(=O)COCCOCCNC(=O)COCCOCCNC(=O)CCCCCCCCCCCCCCCCC(=O)O)C(=O)O)C(=O)O)C(C)C [Example 38, N-epsilon-37-[(S)-4-carboxy-4-(2-{2-[2-(2-{2-[2-(17-carboxyheptadecanoylamino)ethoxy]ethoxy}acetylamino)ethoxy]ethoxy}acetylamino)butyryl] [Aib8,Glu22,Arg26,34,Lys37] GLP-1 (7-37)] | 0.07 nM | 
2 | CC[C@H](C)[C@H](NC(=O)[C@H](Cc1ccccc1)NC(=O)[C@H](CCC(=O)O)NC(=O)[C@H](CCCNC(=N)N)NC(=O)[C@H](C)NC(=O)[C@H](C)NC(=O)[C@H](CCC(N)=O)NC(=O)[C@H](CCC(=O)O)NC(=O)[C@H](CCC(=O)O)NC(=O)[C@H](CC(C)C)NC(=O)[C@H](Cc1ccc(O)cc1)NC(=O)[C@H](CO)NC(=O)[C@H](CO)NC(=O)[C@@H](NC(=O)[C@H](CC(=O)O)NC(=O)[C@H](CO)NC(=O)[C@@H](NC(=O)[C@H](Cc1ccccc1)NC(=O)[C@@H](NC(=O)CNC(=O)[C@H](CCC(=O)O)NC(=O)C(C)(C)NC(=O)[C@@H](N)Cc1c[nH]cn1)[C@@H](C)O)[C@@H](C)O)C(C)C)C(=O)N[C@@H](C)C(=O)N[C@@H](CCCCNC(=O)COCCOCCNC(=O)COCCOCCNC(=O)C[C@H](NC(=O)C1CCN(C(=O)CCCCCCCCCCCCCCCCCCC(=O)O)CC1)C(=O)O)C(=O)N[C@@H](CC(C)C)C(=O)N[C@H](C(=O)N[C@@H](CCCCN)C(=O)NCC(=O)N[C@@H](CCCNC(=N)N)C(=O)NCC(=O)O)C(C)C [Example 5, N-epsilon31{2-[2-(2-{2-[2-((S)-3-carboxy-3-{[1-(19-carboxynonadecanoyl)piperidine-4-carbonyl]amino}propionylamino)ethoxy]ethoxy}acetylamino)ethoxy]ethoxy}acetyl [Aib8,Glu22,Arg26,Lys31]GLP-1-(7-37)] (H-H[Aib]EGTFTSDVSSYLEEQAAREFIAK([AEEA-AEEA-βAsp-Inp-C20 diacid])LVKGRG-OH) | 0.2 nM | 100 to 150 nM
3 | CC[C@H](C)[C@H](NC(=O)[C@H](Cc1ccccc1)NC(=O)[C@H](CCC(=O)O)NC(=O)[C@H](CCCNC(=N)N)NC(=O)[C@@H](NC(=O)[C@H](C)NC(=O)[C@H](CCC(N)=O)NC(=O)[C@H](CCC(=O)O)NC(=O)[C@H](CCC(=O)O)NC(=O)[C@H](CCCCN)NC(=O)[C@H](Cc1ccc(O)cc1)NC(=O)[C@H](CO)NC(=O)[C@H](CO)NC(=O)[C@@H](NC(=O)[C@H](CC(=O)O)NC(=O)[C@H](CO)NC(=O)[C@@H](NC(=O)[C@H](Cc1ccccc1)NC(=O)[C@@H](NC(=O)CNC(=O)[C@H](CCC(=O)O)NC(=O)C(C)(C)NC(=O)[C@@H](N)Cc1c[nH]cn1)[C@@H](C)O)[C@@H](C)O)C(C)C)C(C)C)C(=O)N[C@@H](C)C(=O)N[C@@H](CCCCNC(=O)COCCOCCNC(=O)COCCOCCNC(=O)CC[C@H](NC(=O)CCCCCCCCCCCCCCCCC(=O)O)C(=O)O)C(=O)N[C@@H](CC(C)C)C(=O)N[C@H](C(=O)N[C@@H](CCCNC(=N)N)C(=O)N[C@@H](CCCNC(=N)N)C(=O)N[C@@H](CCCNC(=N)N)C(=O)N[C@@H](CCCNC(=N)N)C(=O)O)C(C)C [Example 34, N-epsilon31-[2-(2-{2-[2-(2-{2-[(S)-4-Carboxy-4-(17-carboxyheptadecanoylamino)butyrylamino]ethoxy}ethoxy)acetylamino]ethoxy}ethoxy)acetyl][Aib8,Glu22,Val25,Arg26,Lys31,Arg34,Arg35,Arg37]GLP-1-(7-37)] (H-H[Aib]EGTFTSDVSSYKEEQAVREFIAK([AEEA-AEEA-γGlu-C18 diacid])LVRRRR-OH) | 1.27 nM | > 2000 nM
4 | CCCCCCCCCCCCCCCCCC(=O)NCCOCCOCC(=O)NCCOCCOCC(=O)NCCOCCOCC(=O)NCCCC[C@H](NC(=O)[C@H](CCCNC(=N)N)NC(=O)CNC(=O)[C@H](CCCNC(=N)N)NC(=O)[C@@H](NC(=O)[C@H](CC(C)C)NC(=O)[C@H](Cc1c[nH]c2ccccc12)NC(=O)[C@H](C)NC(=O)[C@@H](NC(=O)[C@H](Cc1ccccc1)NC(=O)[C@H](CCC(=O)O)NC(=O)[C@H](CCCNC(=N)N)NC(=O)[C@H](C)NC(=O)[C@H](C)NC(=O)[C@H](CCC(N)=O)NC(=O)[C@H](CCC(=O)O)NC(=O)[C@H](CCC(=O)O)NC(=O)[C@H](CC(C)C)NC(=O)[C@H](Cc1ccc(O)cc1)NC(=O)[C@H](CO)NC(=O)[C@H](CO)NC(=O)[C@@H](NC(=O)[C@H](CC(=O)O)NC(=O)[C@H](CO)NC(=O)[C@@H](NC(=O)[C@H](Cc1ccccc1)NC(=O)[C@@H](NC(=O)CNC(=O)[C@H](CCC(=O)O)NC(=O)[C@H](C)NC(=O)CCc1c[nH]cn1)[C@@H](C)O)[C@@H](C)O)C(C)C)[C@@H](C)CC)C(C)C)C(N)=O [Example 19, N-epsilon37-(2-(2-(2-(2-(2-(2-(2-(2-(2-(Octadecanoylamino)ethoxy)ethoxy)acetylamino)ethoxy)ethoxy)acetylamino)ethoxy)ethoxy)acetyl)[desaminoHis7,Glu22,Arg26,Arg34,Lys37] GLP-1 (7-37)amide] | 0.05 nM | 
5 | CC[C@H](C)[C@H](NC(=O)[C@H](Cc1ccccc1)NC(=O)[C@H](CCC(=O)O)NC(=O)[C@H](CCCNC(=N)N)NC(=O)[C@H](C)NC(=O)[C@H](C)NC(=O)[C@H](CCC(N)=O)NC(=O)[C@H](CCC(=O)O)NC(=O)[C@H](CCC(=O)O)NC(=O)[C@H](CC(C)C)NC(=O)[C@H](Cc1ccc(O)cc1)NC(=O)[C@H](CO)NC(=O)[C@H](CO)NC(=O)[C@@H](NC(=O)[C@H](CC(=O)O)NC(=O)[C@H](CO)NC(=O)[C@@H](NC(=O)[C@H](Cc1ccccc1)NC(=O)[C@@H](NC(=O)CNC(=O)[C@H](CCC(=O)O)NC(=O)[C@H](C)NC(=O)CCc1c[nH]cn1)[C@@H](C)O)[C@@H](C)O)C(C)C)C(=O)N[C@@H](C)C(=O)N[C@@H](Cc1c[nH]c2ccccc12)C(=O)N[C@@H](CC(C)C)C(=O)N[C@H](C(=O)N[C@@H](CCCNC(=N)N)C(=O)NCC(=O)N[C@@H](CCCNC(=N)N)C(=O)N[C@@H](CCCCNC(=O)COCCOCCNC(=O)CC[C@H](NC(=O)CC[C@H](NC(=O)CCCCCCCCCCCNC(=O)CCCS(=O)(=O)NC(=O)CCCCCCCCCCCCCCCc1nnn(C(C)(C)C)n1)C(=O)O)C(=O)O)C(=O)O)C(C)C [Example 26, N-epsilon37-{2-[2-(2-{(S)-4-[(S)-4-(12-{4-[16-(2-tert-Butyl-2H-tetrazol-5-yl)-hexadecanoylsulfamoyl]butyrylamino}dodecanoylamino)-4-carboxybutyrylamino]-4-carboxybutyrylamino}ethoxy)ethoxy]acetyl}[DesaminoHis7,Glu22,Arg26,Arg34,Lys37] GLP-1 (7-37)] | 0.25 nM | 
6 | CC[C@H](C)[C@H](NC(=O)[C@H](Cc1ccccc1)NC(=O)[C@H](CCC(=O)O)NC(=O)[C@H](CCCNC(=N)N)NC(=O)[C@H](C)NC(=O)[C@H](C)NC(=O)[C@H](CCC(N)=O)NC(=O)[C@H](CCC(=O)O)NC(=O)[C@H](CCC(=O)O)NC(=O)[C@H](CC(C)C)NC(=O)[C@H](Cc1ccc(O)cc1)NC(=O)[C@H](CO)NC(=O)[C@H](CO)NC(=O)[C@@H](NC(=O)[C@H](CC(=O)O)NC(=O)[C@H](CO)NC(=O)[C@@H](NC(=O)[C@H](Cc1ccccc1)NC(=O)[C@@H](NC(=O)CNC(=O)[C@H](CCC(=O)O)NC(=O)[C@H](C)NC(=O)CCc1c[nH]cn1)[C@@H](C)O)[C@@H](C)O)C(C)C)C(=O)N[C@@H](CCC(=O)O)C(=O)N[C@@H](Cc1c[nH]c2ccccc12)C(=O)N[C@@H](CC(C)C)C(=O)N[C@H](C(=O)N[C@@H](CCCNC(=N)N)C(=O)NCC(=O)N[C@@H](CCCNC(=N)N)C(=O)N[C@@H](CCCCNC(=O)COCCOCCNC(=O)COCCOCCNC(=O)CC[C@H](NC(=O)[C@H]1CC[C@H](CNC(=O)CCCCCCCCCCCCCCCCCCC(=O)O)CC1)C(=O)O)C(=O)O)C(C)C [Example 10, N-epsilon37-[2-(2-{2-[2-(2-{2-[(S)-4-Carboxy-4-({trans-4-[(19-carboxy-nonadecanoylamino)methyl]cyclohexanecarbonyl}amino)butyrylamino]ethoxy}ethoxy)acetylamino]ethoxy}ethoxy)acetyl][DesaminoHis7,Glu22,Arg26,Glu30,Arg34,Lys37]GLP-1-(7-37)] (Desaminohistidyl-AEGTFTSDVSSYLEEQAAREFIEWLVRGRK([AEEA-AEEA-γGlu-Trx-C20 diacid])-OH) | 0.66 nM | 
7 | CCCCCCCCCCCCCCCCOCCOCCOCCOCCOCCOCCC(=O)NCCCC[C@H](NC(=O)[C@H](CCCNC(=N)N)NC(=O)CNC(=O)[C@H](CCCNC(=N)N)NC(=O)[C@@H](NC(=O)[C@H](CC(C)C)NC(=O)[C@H](Cc1c[nH]c2ccccc12)NC(=O)[C@H](C)NC(=O)[C@@H](NC(=O)[C@H](Cc1ccccc1)NC(=O)[C@H](CCC(=O)O)NC(=O)[C@H](CCCNC(=N)N)NC(=O)[C@H](C)NC(=O)[C@H](C)NC(=O)[C@H](CCC(N)=O)NC(=O)[C@H](CCC(=O)O)NC(=O)[C@H](CCC(=O)O)NC(=O)[C@H](CC(C)C)NC(=O)[C@H](Cc1ccc(O)cc1)NC(=O)[C@H](CO)NC(=O)[C@H](CO)NC(=O)[C@@H](NC(=O)[C@H](CC(=O)O)NC(=O)[C@H](CO)NC(=O)[C@@H](NC(=O)[C@H](Cc1ccccc1)NC(=O)[C@@H](NC(=O)CNC(=O)[C@H](CCC(=O)O)NC(=O)[C@H](C)NC(=O)CCc1c[nH]cn1)[C@@H](C)O)[C@@H](C)O)C(C)C)[C@@H](C)CC)C(C)C)C(N)=O [Example 16, N-epsilon37 (3-((2-(2-(2-(2-(2-Hexadecyloxyethoxy)ethoxy)ethoxy)ethoxy)ethoxy))propionyl)[DesaminoHis7,Glu22,Arg26,Arg34,Lys37]GLP-1(7-37)-amide] | 0.15 nM | 
